Data taken from US10940139B2, “Compounds that interact with the Ras superfamily for the treatment of cancers, inflammatory diseases, rasopathies, and fibrotic disease” (Shy Therapeutics LLC, priority 2017, dated 2021).

Tests used:
[1] = test system: TNFα production in RAW 264.7 macrophage cell line; assay: Mouse TNF alpha quantification assay (LPS-stimulated macrophages, ELISA); assay type: cell-based; conditions: RAW264.7, RAW 264.7 murine leukemia virus transformed macrophage cell lines, LPS stimulation, read-out: TNF-α % Inhibition at 30 μM
[2] = test system: IL6 production in RAW 264.7 macrophage cell line; assay: Mouse IL6 quantification assay (LPS-stimulated macrophages, ELISA); assay type: cell-based; conditions: RAW264.7, RAW 264.7 murine leukemia virus transformed macrophage cell lines, LPS stimulation, read-out: IL-6 % Inhibition at 30 μM

Compound	inhibition at 30 µM [1] [%]	inhibition at 30 µM [2] [%]
O=C(CCc1cnn(-c2ccccc2)c1)Nc1nnc(-c2ccccc2)[nH]1	1 to 25	26 to 50
CN(CCc1ccncc1)C(=O)c1csc2c(O)nc(N)nc12	0	1 to 25
O=C(c1csc2c(O)nc(-c3ccccn3)nc12)N1CCC(c2ccccc2)CC1	51 to 75	76 to 100
COC1CC(CNc2nc(-c3ccccn3)nc3scc(-c4ccccc4)c23)CCC1OCC(N)=O (centres unmarked)	76 to 100	76 to 100
OCCn1ncc2c1CCCC2Nc1nc(-c2ccccn2)nc2scc(-c3ccccc3)c12 (centres unmarked)	26 to 50	26 to 50
CC(CC(=O)N1CCOCC1)c1nc(-c2ccccn2)nc2scc(-c3ccccc3)c12 (centres unmarked)	1 to 25	1 to 25
COc1cncc(CCNC(=O)c2csc3nc(-c4ccccn4)nc(N4CCOCC4)c23)c1	0	1 to 25
O=C(c1csc2c(O)nc(-c3cccnc3)nc12)N1CCNC(Cc2cccc(F)c2)C1 (centres unmarked)	1 to 25	26 to 50
CC(C)Oc1ccc(-c2csc3c(O)nc(-c4nccn4C)nc23)cn1	76 to 100	76 to 100
CC(C)NC(=O)Nc1cccc(C(=O)Nc2nnc(-c3ccccn3)[nH]2)c1 [drawing 1926]	1 to 25	0
O=C(Cc1ccc(-n2cnnn2)cc1)Nc1nnc(-c2ccccn2)[nH]1 [drawing 1927]	1 to 25	0
COc1cccc(CCC(=O)Nc2nnc(-c3ccccn3)[nH]2)c1 [drawing 1928]	1 to 25	0
COc1ccc(CCC(=O)Nc2nnc(-c3ccccn3)[nH]2)cc1F [drawing 1929]	26 to 50	1 to 25
O=C(Nc1nnc(-c2ccccn2)[nH]1)c1ccc2c(c1)CCO2 [drawing 1930]	0	1 to 25
O=C(Cc1c[nH]c2ccccc12)Nc1nnc(-c2ccccn2)[nH]1 [drawing 1931]	1 to 25	26 to 50
Cn1cc(C2CC2C(=O)Nc2nnc(-c3ccccn3)[nH]2)cn1 (centres unmarked) [drawing 1932]	1 to 25	0
COc1cccc(CC(=O)Nc2nnc(-c3ccccn3)[nH]2)c1 [drawing 1933]	1 to 25	26 to 50
O=C(CCn1ccc2ccccc21)Nc1nnc(-c2ccccn2)[nH]1 [drawing 1934]	1 to 25	1 to 25
O=C(Nc1nnc(-c2ccccn2)[nH]1)c1ccn(-c2ccccc2)n1 [drawing 1935]	1 to 25	1 to 25
Cc1c(C(=O)Nc2nnc(-c3ccccn3)[nH]2)oc2ccccc12 [drawing 1936]	1 to 25	0
CC(Oc1ccccc1Cl)C(=O)Nc1nnc(-c2ccccn2)[nH]1 (centres unmarked) [drawing 1937]	1 to 25	26 to 50
O=C(Nc1nnc(-c2ccccn2)[nH]1)c1ccn(-c2cccc(F)c2)n1 [drawing 1938]	0	26 to 50
COc1ccc(CCC(=O)Nc2nnc(-c3ccccn3)[nH]2)cc1 [drawing 1939]	0	1 to 25

Compound	inhibition at 30 µM [1] [%]	inhibition at 30 µM [2] [%]
COc1ccc2c(ccn2CC(=O)Nc2nnc(-c3ccccn3)[nH]2)c1 [drawing 1940]	1 to 25	26 to 50
O=C(CCc1c[nH]c2ccccc12)Nc1nnc(-c2ccccn2)[nH]1 [drawing 1941]	0	51 to 75
O=C(Nc1nnc(-c2ccccn2)[nH]1)c1ccc2ccccc2n1 [drawing 1942]	0	1 to 25
Cc1ccc(CC(=O)Nc2nnc(-c3ccccn3)[nH]2)cc1 [drawing 1943]	0	1 to 25
Cn1cc(-c2nc(C(=O)Nc3nnc(-c4ccccn4)[nH]3)cs2)cn1 [drawing 1944]	1 to 25	51 to 75
Cn1ccc(C(=O)Nc2nnc(-c3ccccn3)[nH]2)cc1=O [drawing 1945]	1 to 25	0
Cc1c(C(=O)Nc2nnc(-c3ccccn3)[nH]2)oc2c1C(=O)CCC2 [drawing 1946]	0	1 to 25
C[C@H](NS(=O)(=O)c1ccccc1F)C(=O)Nc1nnc(-c2ccccn2)[nH]1 [drawing 1947]	1 to 25	51 to 75
CC(OCC(F)(F)F)C(=O)Nc1nnc(-c2ccccn2)[nH]1 (centres unmarked) [drawing 1948]	1 to 25	0
CC(C)c1nc(CC(=O)Nc2nnc(-c3ccccn3)[nH]2)cs1 [drawing 1949]	0	1 to 25
O=C(Nc1nnc(-c2ccccn2)[nH]1)c1ccc(CN2C(=O)CCC2=O)cc1 [drawing 1950]	1 to 25	0
CC(C)c1noc(CCCC(=O)Nc2nnc(-c3ccccn3)[nH]2)n1 [drawing 1951]	1 to 25	0
CC(C)c1noc(CCC(=O)Nc2nnc(-c3ccccn3)[nH]2)n1 [drawing 1952]	0	1 to 25
O=C(Cc1cccs1)Nc1nnc(-c2ccccn2)[nH]1 [drawing 1953]	1 to 25	1 to 25
N#Cc1ccccc1OCC(=O)Nc1nnc(-c2ccccn2)[nH]1 [drawing 1954]	0	1 to 25
O=C(Nc1nnc(-c2ccccn2)[nH]1)C1COc2ccccc2C1 (centres unmarked) [drawing 1955]	1 to 25	26 to 50
O=C(Nc1nnc(-c2ccccn2)[nH]1)c1ccc(Oc2ccccc2)nc1 [drawing 1956]	1 to 25	26 to 50
Cc1noc(C)c1CC(=O)Nc1nnc(-c2ccccn2)[nH]1 [drawing 1957]	0	1 to 25
O=C(Nc1nnc(-c2ccccn2)[nH]1)C1CC(=O)N(CCc2ccccc2)C1 (centres unmarked) [drawing 1958]	0	1 to 25
CN(CC(=O)Nc1nnc(-c2ccccn2)[nH]1)S(C)(=O)=O [drawing 1959]	1 to 25	0
O=C(Cc1cccc(F)c1)Nc1nnc(-c2ccccn2)[nH]1 [drawing 1960]	0	1 to 25
O=C(Nc1nnc(-c2ccccn2)[nH]1)c1cccc(NC(=O)C2CCCO2)c1 (centres unmarked) [drawing 1961]	0	1 to 25
O=C(CC1CCCC1)NCC(=O)Nc1nnc(-c2ccccn2)[nH]1 [drawing 1962]	1 to 25	1 to 25

Compound	inhibition at 30 µM [1] [%]	inhibition at 30 µM [2] [%]
O=C(Nc1nnc(-c2ccccn2)[nH]1)c1ncoc1-c1cccs1 [drawing 1963]	1 to 25	26 to 50
O=C(Nc1nnc(-c2ccccn2)[nH]1)c1nc(N2CCOCC2)ncc1Cl [drawing 1964]	0	1 to 25
O=C(Nc1nnc(-c2ccccn2)[nH]1)C1Cc2ccccc2O1 (centres unmarked) [drawing 1965]	0	1 to 25
CC(Oc1ccccc1C#N)C(=O)Nc1nnc(-c2ccccn2)[nH]1 (centres unmarked) [drawing 1966]	1 to 25	0
CC(Oc1cccc(C#N)c1)C(=O)Nc1nnc(-c2ccccn2)[nH]1 (centres unmarked) [drawing 1967]	0	1 to 25
CC(Oc1ccc(C(=O)Nc2nnc(-c3ccccn3)[nH]2)cn1)c1ccccc1 (centres unmarked) [drawing 1968]	0	1 to 25
O=C(Nc1nnc(-c2ccccn2)[nH]1)C1CCCN(c2ncccn2)C1 (centres unmarked) [drawing 1969]	1 to 25	0
O=C(Cc1ccc(F)cc1)Nc1nnc(-c2ccccn2)[nH]1 [drawing 1970]	1 to 25	1 to 25
CC(OCc1ccccc1)C(=O)Nc1nnc(-c2ccccn2)[nH]1 (centres unmarked) [drawing 1971]	0	1 to 25
O=C(Nc1nnc(-c2ccccn2)[nH]1)C1CCCC(C(F)(F)F)C1 (centres unmarked) [drawing 1972]	0	1 to 25
O=C(COCc1ccccc1Cl)Nc1nnc(-c2ccccn2)[nH]1 [drawing 1973]	1 to 25	26 to 50
O=C(Nc1nnc(-c2ccccn2)[nH]1)C1CC1c1ccc(F)cc1 (centres unmarked) [drawing 1974]	1 to 25	1 to 25
Cc1ccc(CC(=O)Nc2nnc(-c3ccccn3)[nH]2)s1 [drawing 1975]	0	1 to 25
Cc1cccc(C(=O)Nc2nnc(-c3ccccn3)[nH]2)n1 [drawing 1976]	0	1 to 25
CC(Oc1ccc(C#N)cc1)C(=O)Nc1nnc(-c2ccccn2)[nH]1 (centres unmarked) [drawing 1977]	1 to 25	1 to 25
O=C(COc1ccc2c(c1)CCC2)Nc1nnc(-c2ccccn2)[nH]1 [drawing 1978]	0	1 to 25
O=C(Nc1nnc(-c2ccccn2)[nH]1)C1CCCN(c2cnccn2)C1 (centres unmarked) [drawing 1979]	1 to 25	1 to 25
O=C(Nc1nnc(-c2ccccn2)[nH]1)c1ccc(NC(=O)c2ccccn2)cc1 [drawing 1980]	1 to 25	0
COC(=O)c1cncc(C(=O)Nc2nnc(-c3ccccn3)[nH]2)c1 [drawing 1981]	1 to 25	1 to 25
CCc1ccccc1OCC(=O)Nc1nnc(-c2ccccn2)[nH]1 [drawing 1982]	0	26 to 50
Cc1nc(-c2ccccn2)sc1C(=O)Nc1nnc(-c2ccccn2)[nH]1 [drawing 1983]	0	1 to 25
